This is an account of results in ChEMBL document CHEMBL1201862, “PubChem BioAssay data set” (2004).

Test systems include ACHN; BT-549; COLO 205; HL-60; HOP-92; LOX IMVI; M14; MOLT-4; NCI-H23; NCI-H522; NCI/ADR-RES; OVCAR-4; OVCAR-8; RPMI-8226; RXF 393; SK-MEL-2; SW-620; T47D; UACC-257; UACC-62.
Test in all cases: DTP human tumour cell line panel, 48 h

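In this assay, cells in 96-well plates receive the compound at five concentrations for 48 hours. Endpoints are linearly interpolated between the surrounding concentrations. GI50 = concentration required for 50% inhibition of growth.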 Calls of active or inactive are those of the source. No stated cut-off is given here; in the data, active = GI50 up to about 1.1 µM and inactive = higher.

Take `Cn1c(=O)c2c(O)cc(N)nc2n(C)c1=O`: the GI50 with ACHN was > 100 µM (inactive); in the experiment on BT-549, > 100 µM (inactive); with COLO 205, > 100 µM (inactive); with HL-60, > 100 µM (inactive); with HOP-92, 67.3 µM (inactive); with LOX IMVI, > 100 µM (inactive). In addition, the GI50 in the experiment on M14, with MOLT-4, in the experiment with NCI-H23, in the experiment with NCI-H522, with NCI/ADR-RES and in the experiment on OVCAR-4 was > 100 µM (inactive) each time. For the same compound, the GI50 was 63.4 µM (inactive) in the experiment with OVCAR-8; > 100 µM (inactive) in the experiment on RPMI-8226; > 100 µM (inactive) with RXF 393; > 100 µM (inactive) with SK-MEL-2; > 100 µM (inactive) in the experiment on SW-620; > 100 µM (inactive) in the experiment on T47D. Also, the GI50 in the experiment on UACC-257 and in the experiment on UACC-62 was > 100 µM (inactive) throughout.
For `Oc1ccc(Br)cc1/C=N/c1cccc(C(F)(F)F)c1`, the GI50 with ACHN is > 100 µM (inactive); in the experiment with BT-549 it was 22.3 µM (inactive); in the experiment with COLO 205, 96.6 µM (inactive); in the experiment with HL-60, 3.2 µM (inactive); in the experiment on HOP-92, 35.2 µM (inactive); in the experiment with LOX IMVI it was 18.3 µM (inactive). Besides, the GI50 was 17.5 µM (inactive) in the experiment on M14; 23.1 µM (inactive) with MOLT-4; 37.2 µM (inactive) with NCI-H23; > 100 µM (inactive) in the experiment with NCI-H522; 28.5 µM (inactive) with NCI/ADR-RES; 34.8 µM (inactive) in the experiment with OVCAR-4. Moreover, the GI50 with OVCAR-8 was 30.4 µM (inactive); in the experiment with RPMI-8226, 28.1 µM (inactive); with RXF 393, > 100 µM (inactive); with SK-MEL-2, 19.5 µM (inactive); in the experiment with SW-620, 24 µM (inactive); with T47D it was 19.9 µM (inactive). The GI50 in the experiment on UACC-257 is 35.6 µM (inactive); in the experiment with UACC-62, 25.1 µM (inactive).
For the compound `C=C1C(=O)O[C@H]2[C@H]3O[C@@H](C[C@@H]12)[C@@]1(C)CC[C@H](O1)C(C)=CCC[C@H]3C`, the GI50 in the experiment with ACHN was 1.55 µM (inactive); in the experiment with BT-549, 0.581 µM (active); in the experiment on COLO 205, 1.81 µM (inactive); in the experiment on HL-60, 0.278 µM (active); in the experiment with HOP-92 it was 1.55 µM (inactive); in the experiment on LOX IMVI, 1.52 µM (inactive). For the same compound, the GI50 in the experiment on M14 is 1.65 µM (inactive); in the experiment on MOLT-4, 1.26 µM (inactive); with NCI-H23, 1.53 µM (inactive); in the experiment on NCI-H522 it was 1.77 µM (inactive); with NCI/ADR-RES, 1.72 µM (inactive); with OVCAR-4, 1.59 µM (inactive). The GI50 was 1.44 µM (inactive) in the experiment on OVCAR-8; 0.513 µM (active) with RPMI-8226; 1.48 µM (inactive) in the experiment on RXF 393; 1.93 µM (inactive) in the experiment with SK-MEL-2; 1.26 µM (inactive) with SW-620; 2.11 µM (inactive) in the experiment with T47D. Further, the GI50 in the experiment on UACC-257 is 1.76 µM (inactive); in the experiment on UACC-62, 1.53 µM (inactive).
With `COc1ccccc1C1ON=C(c2ccc([N+](=O)[O-])cc2)N1C12CC3CC(CC(C3)C1)C2` (stereo not given), the GI50 in the experiment with ACHN is > 100 µM (inactive); in the experiment with BT-549, > 100 µM (inactive); in the experiment with COLO 205 it was > 100 µM (inactive); in the experiment on HL-60, 4.35 µM (inactive); in the experiment on HOP-92, 29.2 µM (inactive); in the experiment on LOX IMVI, > 100 µM (inactive). Further, the GI50 was 84.3 µM (inactive) in the experiment with M14; 17.6 µM (inactive) in the experiment on MOLT-4; > 100 µM (inactive) in the experiment on NCI-H23; 73.8 µM (inactive) in the experiment on NCI-H522; > 100 µM (inactive) in the experiment with NCI/ADR-RES; > 100 µM (inactive) in the experiment on OVCAR-4. In addition, the GI50 is > 100 µM (inactive) in the experiment on OVCAR-8; 20.8 µM (inactive) with RPMI-8226; 12.1 µM (inactive) with RXF 393; > 100 µM (inactive) with SK-MEL-2; > 100 µM (inactive) in the experiment with SW-620; 14 µM (inactive) in the experiment on T47D. Moreover, the GI50 in the experiment on UACC-257 and in the experiment on UACC-62 was > 100 µM (inactive) each time.
Take `COc1ccc2c(C(=O)c3cn(CCN4CCOCC4)c4ccccc34)cccc2c1`: the GI50 with ACHN was > 96.4 µM (inactive); in the experiment with BT-549 it was > 95.5 µM (inactive); with COLO 205, 58.9 µM (inactive); in the experiment on HL-60, 18.3 µM (inactive); with HOP-92, > 100 µM (inactive); in the experiment with LOX IMVI, 22.3 µM (inactive). For the same compound, the GI50 with M14 was > 31.1 µM (inactive); with MOLT-4, 15.1 µM (inactive); with NCI-H23 it was > 100 µM (inactive); with NCI-H522 it was 6.65 µM (inactive); in the experiment with NCI/ADR-RES it was > 34.4 µM (inactive); in the experiment on OVCAR-4, 12.6 µM (inactive). Also, the GI50 was 43 µM (inactive) in the experiment with OVCAR-8; 21.2 µM (inactive) in the experiment with RPMI-8226; > 67.6 µM (inactive) in the experiment with RXF 393; > 100 µM (inactive) in the experiment with SK-MEL-2; 31 µM (inactive) in the experiment on SW-620; 38 µM (inactive) in the experiment with T47D. In addition, the GI50 in the experiment with UACC-257 is 75.9 µM (inactive); with UACC-62, > 29.6 µM (inactive).
As to `C1CCNCC1.CN(C)c1ccc(/C=C2/NC(=S)NC2=O)cc1`, the GI50 in the experiment with ACHN was 64.7 µM (inactive); in the experiment on BT-549, 49.4 µM (inactive); with COLO 205, 49.9 µM (inactive); in the experiment with HL-60 it was 19.7 µM (inactive); in the experiment with HOP-92, 61.8 µM (inactive); in the experiment on LOX IMVI, 49 µM (inactive). Also, the GI50 with M14 was 68.1 µM (inactive); with MOLT-4, 28.2 µM (inactive); in the experiment with NCI-H23, 61.5 µM (inactive); in the experiment on NCI-H522, 65.2 µM (inactive); in the experiment on NCI/ADR-RES, 77.4 µM (inactive); with OVCAR-4, > 100 µM (inactive). The GI50 was 97.9 µM (inactive) in the experiment with OVCAR-8; 24.5 µM (inactive) in the experiment on RPMI-8226; 37.6 µM (inactive) in the experiment on RXF 393; > 100 µM (inactive) in the experiment with SK-MEL-2; 37.8 µM (inactive) in the experiment on SW-620; 30.1 µM (inactive) in the experiment on T47D. Besides, the GI50 in the experiment on UACC-257 is 72.8 µM (inactive); in the experiment on UACC-62, 36.8 µM (inactive).
Take `Cc1nc(O)nc2nc3ccc(Cl)cc3c(NCCNCCO)c12`: the GI50 was 14.3 µM (inactive) in the experiment on ACHN; 16.7 µM (inactive) with BT-549; 8.99 µM (inactive) in the experiment on COLO 205; 90.4 µM (inactive) in the experiment with HL-60; 11.4 µM (inactive) in the experiment on HOP-92; 8.83 µM (inactive) with LOX IMVI. Moreover, the GI50 is 12.1 µM (inactive) in the experiment on M14; 7.53 µM (inactive) in the experiment on MOLT-4; 8.77 µM (inactive) in the experiment on NCI-H23; 3.21 µM (inactive) in the experiment on NCI-H522; 19.4 µM (inactive) with NCI/ADR-RES; 12.4 µM (inactive) with OVCAR-4. Further, the GI50 with OVCAR-8 is 9.46 µM (inactive); with RPMI-8226 it was 42.9 µM (inactive); in the experiment with RXF 393, 14.6 µM (inactive); in the experiment on SK-MEL-2, 14.9 µM (inactive); with SW-620, 6.87 µM (inactive); in the experiment on T47D it was 10.3 µM (inactive). The figures for the GI50 with UACC-257 and in the experiment with UACC-62 were 12.4 µM (inactive) and 12 µM (inactive), respectively.

What is called GI50 is the concentration at which growth is held to half of that of the control.
